According to patent US8765741B2, “5,6-dihydro-1H-pyridin-2-one compounds” (Anadys Pharmaceuticals, Inc., priority 2007, dated 2014):

Biological target: NS5B polymerase (Hepatitis C virus genotype 1b, UniProt P26663)
Experiment: biochemical
Details: NS5B polymerase inhibition; 20 nM enzyme, 75 min at 28° C.; read-out: IC50
Method: Compounds were tested for HCV polymerase inhibition. Assays were performed in a 96-well streptavidin-coated FlashPlate using 20 nM enzyme, 0.5 μCi of [α-^33P]GTP, 0.6 μM GTP, and 250 nM 5′biotinylated oligo (rG13)/poly rC in 20 mM Tris-HCl, pH 7.5, 5 mM MgCl2, 5 mM dithiothreitol, 0.1 g/L bovine serum albumin, and 100 U/mL RNAse inhibitor. The reaction was stopped by aspiration after 75 min at 28° C. and the plate was washed several times. After washing and drying the plate, incorporated radioactivity was counted using a Microbeta scintillation counter. IC50 values were calculated relative to the uninhibited control and inhibition data were fitted to a 4-parameter IC50 equation.

Sequence of NS5B polymerase (P26663 2420-3010): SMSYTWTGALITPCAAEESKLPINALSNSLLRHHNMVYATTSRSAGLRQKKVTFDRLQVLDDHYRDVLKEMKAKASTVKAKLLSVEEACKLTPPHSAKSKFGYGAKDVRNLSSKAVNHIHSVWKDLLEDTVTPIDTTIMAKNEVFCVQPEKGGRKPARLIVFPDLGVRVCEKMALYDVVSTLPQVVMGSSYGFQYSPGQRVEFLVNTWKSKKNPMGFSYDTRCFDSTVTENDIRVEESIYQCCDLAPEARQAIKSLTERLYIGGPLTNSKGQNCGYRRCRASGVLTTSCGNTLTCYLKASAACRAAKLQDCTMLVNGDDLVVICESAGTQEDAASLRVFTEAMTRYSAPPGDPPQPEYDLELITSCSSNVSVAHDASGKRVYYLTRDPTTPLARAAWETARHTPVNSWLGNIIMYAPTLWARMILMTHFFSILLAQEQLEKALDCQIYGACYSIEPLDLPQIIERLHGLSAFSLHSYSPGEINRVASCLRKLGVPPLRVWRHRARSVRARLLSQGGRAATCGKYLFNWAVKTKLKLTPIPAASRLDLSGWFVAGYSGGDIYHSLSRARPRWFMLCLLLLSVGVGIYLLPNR

SMILES	IC50 [nM]
Cc1cc(CN2C(=O)C(C3=NS(=O)(=O)c4cc(NS(C)(=O)=O)ccc4N3)=C(O)[C@H]3[C@@H]2[C@@H]2CC[C@H]3O2)ccc1F [Example 11, N-{3-[(1S,2R,7S,8R)-3-(4-Fluoro-3-methyl-benzyl)-6-hydroxy-4-oxo-11-oxa-3-aza-tricyclo[6.2.1.0^2,7]undec-5-en-5-yl]-1,1-dioxo-1,4-dihydro-1λ^6-benzo[1,2,4]thiadiazin-7-yl}-methanesulfonamide]	< 20
CS(=O)(=O)Nc1ccc2c(c1)S(=O)(=O)N=C(C1=C(O)[C@H]3[C@H]([C@@H]4CC[C@H]3O4)N(Cc3ccc(F)cc3)C1=O)N2 [Example 14, N-{3-[(1S,2R,7S,8R)-3-(4-Fluoro-benzyl)-6-hydroxy-4-oxo-11-oxa-3-aza-tricyclo[6.2.1.0^2,7]undec-5-en-5-yl]-1,1-dioxo-1,4-dihydro-1λ^6-benzo[1,2,4]thiadiazin-7-yl}-methanesulfonamide]	< 20
CS(=O)(=O)Nc1ccc2c(c1)S(=O)(=O)N=C(C1=C(O)[C@@H]3[C@H]4CC[C@H](C4)[C@@H]3N(Cc3ccc(F)c(F)c3)C1=O)N2 [Example 16, N-{3-[(1R,2S,7R,8S)-3-(3,4-Difluoro-benzyl)-6-hydroxy-4-oxo-3-aza-tricyclo[6.2.1.0^2,7]undec-5-en-5-yl]-1,1-dioxo-1,4-dihydro-1λ^6-benzo[1,2,4]thiadiazin-7-yl}-methanesulfonamide]	< 20
CN(c1ccc2c(c1)S(=O)(=O)N=C(C1=C(O)[C@@H]3[C@H]4CC[C@H](C4)[C@@H]3N(Cc3ccc(F)c(F)c3)C1=O)N2)S(C)(=O)=O [Example 17, N-{3-[(1R,2S,7R,8S)-3-(3,4-Difluoro-benzyl)-6-hydroxy-4-oxo-3-aza-tricyclo[6.2.1.0^2,7]undec-5-en-5-yl]-1,1-dioxo-1,4-dihydro-1λ^6-benzo[1,2,4]thiadiazin-7-yl}-N-methyl-methanesulfonamide]	20 to 100
Cc1cc(CN2C(=O)C(C3=NS(=O)(=O)c4cc(N(C)S(C)(=O)=O)ccc4N3)=C(O)[C@@H]3[C@H]4CC[C@H](C4)[C@@H]32)ccc1F [Example 18, N-{3-[(1R,2S,7R,8S)-3-(4-Fluoro-3-methyl-benzyl)-6-hydroxy-4-oxo-3-aza-tricyclo[6.2.1.0^2,7]undec-5-en-5-yl]-1,1-dioxo-1,4-dihydro-1λ^6-benzo[1,2,4]thiadiazin-7-yl}-N-methyl-methanesulfonamide]	20 to 100
O=C1C(C2=NS(=O)(=O)c3cc(I)ccc3N2)=C(O)[C@@H]2[C@H]3CC[C@H](C3)[C@@H]2N1Cc1ccc(F)cc1 [Example 19, (1R,2S,7R,8S)-3-(4-Fluoro-benzyl)-6-hydroxy-5-(7-iodo-1,1-dioxo-1,4-dihydro-1λ^6-benzo[1,2,4]thiadiazin-3-yl)-3-aza-tricyclo[6.2.1.0^2,7]undec-5-en-4-one]	1000 to 100000
O=C1C(C2=NS(=O)(=O)c3cc(C4=CCCS4(=O)=O)ccc3N2)=C(O)[C@@H]2[C@H]3CC[C@H](C3)[C@@H]2N1Cc1ccc(F)cc1 [Example 20, (1R,2S,7R,8S)-5-[7-(1,1-Dioxo-4,5-dihydro-1H-1λ^6-thiophen-2-yl)-1,1-dioxo-1,4-dihydro-1λ^6-benzo[1,2,4]thiadiazin-3-yl]-3-(4-fluoro-benzyl)-6-hydroxy-3-aza-tricyclo[6.2.1.0^2,7]undec-5-en-4-one]	100 to 1000
O=C1C(C2=NS(=O)(=O)c3cc(C4CCCS4(=O)=O)ccc3N2)=C(O)[C@@H]2[C@H]3CC[C@H](C3)[C@@H]2N1Cc1ccc(F)cc1 (stereo partly drawn) [Example 21, (1R,2S,7R,8S)-5-[7-(1,1-Dioxo-tetrahydro-1λ^6-thiophen-2-yl)-1,1-dioxo-1,4-dihydro-1λ^6-benzo[1,2,4]thiadiazin-3-yl]-3-(4-fluoro-benzyl)-6-hydroxy-3-aza-tricyclo[6.2.1.0^2,7]undec-5-en-4-one]	20 to 100
CC(C)CCN1C(=O)C(C2=NS(=O)(=O)c3cc(NS(C)(=O)=O)ccc3N2)=C(O)[C@@H]2[C@H]3CC[C@H](C3)[C@@H]21 [Example 22, (1R,2S,7R,8S)-N-{3-[6-Hydroxy-3-(3-methyl-butyl)-4-oxo-3-aza-tricyclo[6.2.1.0^2,7]undec-5-en-5-yl]-1,1-dioxo-1,4-dihydro-1λ^6-benzo[1,2,4]thiadiazin-7-yl}-methanesulfonamide]	20 to 100
CC(C)CCN1C(=O)C(C2=NS(=O)(=O)c3cc(N(C)S(C)(=O)=O)ccc3N2)=C(O)[C@@H]2[C@H]3CC[C@H](C3)[C@@H]21 [Example 24, (1R,2S,7R,8S)-N-{3-[6-Hydroxy-3-(3-methyl-butyl)-4-oxo-3-aza-tricyclo[6.2.1.0^2,7]undec-5-en-5-yl]-1,1-dioxo-1,4-dihydro-1λ^6-benzo[1,2,4]thiadiazin-7-yl}-N-methyl-methanesulfonamide]	100 to 1000
O=C1C(C2=NS(=O)(=O)c3cc(N4CCCS4(=O)=O)ccc3N2)=C(O)[C@@H]2[C@H]3CC[C@H](C3)[C@@H]2N1Cc1ccc(F)cc1 [Example 26, (1R,2S,7R,8S)-5-[7-(1,1-Dioxo-1λ^6-isothiazolidin-2-yl)-1,1-dioxo-1,4-dihydro-1λ^6-benzo[1,2,4]thiadiazin-3-yl]-3-(4-fluoro-benzyl)-6-hydroxy-3-aza-tricyclo[6.2.1.0^2,7]undec-5-en-4-one]	100 to 1000
CS(=O)(=O)Nc1ccc2c(c1)S(=O)(=O)N=C(C1=C(O)[C@@H]3[C@H]4CC[C@H](C4)[C@@H]3NC1=O)N2 [Example 27, (1R,2S,7R,8S)-N-[3-(6-Hydroxy-4-oxo-3-aza-tricyclo[6.2.1.0^2,7]undec-5-en-5-yl)-1,1-dioxo-1,4-dihydro-1λ^6-benzo[1,2,4]thiadiazin-7-yl]-methanesulfonamide]	1000 to 100000
O=C1C(C2=NS(=O)(=O)c3ccccc3N2)=C(O)[C@@H]2[C@H]3CC[C@H](C3)[C@@H]2N1Cc1ccc(F)cc1 [Example 28, (1R,2S,7R,8S)-5-(1,1-Dioxo-1,4-dihydro-1λ^6-benzo[1,2,4]thiadiazin-3-yl)-3-(4-fluoro-benzyl)-6-hydroxy-3-aza-tricyclo[6.2.1.0^2,7]undec-5-en-4-one]	100 to 1000
CS(=O)(=O)Nc1ccc2c(c1)S(=O)(=O)C=C(C1=C(O)[C@@H]3[C@H]4CC[C@H](C4)[C@@H]3N(Cc3ccc(F)cc3)C1=O)N2 [Example 29, N-{3-[(1R,2S,7R,8S)-3-(4-Fluoro-benzyl)-6-hydroxy-4-oxo-3-aza-tricyclo[6.2.1.0^2,7]undec-5-en-5-yl]-1,1-dioxo-1,4-dihydro-1λ^6-benzo[1,4]thiazin-7-yl}-methanesulfonamide]	< 20
Nc1ccc2c(c1)S(=O)(=O)N=C(C1=C(O)[C@@H]3[C@H]4CC[C@H](C4)[C@@H]3N(Cc3ccc(F)cc3)C1=O)N2 [Example 30, (1R,2S,7R,8S)-5-(7-Amino-1,1-dioxo-1,4-dihydro-1λ^6-benzo[1,2,4]thiadiazin-3-yl)-3-(4-fluoro-benzyl)-6-hydroxy-3-aza-tricyclo[6.2.1.0^2,7]undec-5-en-4-one]	100 to 1000
CC(C)CCN1C(=O)C(C2=NS(=O)(=O)c3cc(I)ccc3N2)=C(O)[C@@H]2[C@H]3CC[C@H](C3)[C@@H]21 [Example 34, (1R,2S,7R,8S)-6-Hydroxy-5-(7-iodo-1,1-dioxo-1,4-dihydro-1λ^6-benzo[1,2,4]thiadiazin-3-yl)-3-(3-methyl-butyl)-3-aza-tricyclo[6.2.1.0^2,7]undec-5-en-4-one]	1000 to 100000
O=C1C(C2=NS(=O)(=O)c3cc(NS(=O)(=O)C4CC4)ccc3N2)=C(O)C2C([C@@H]3CC[C@H]2C3)N1Cc1ccc(F)cc1 (stereo partly drawn) [Example 35, Cyclopropane sulfonic acid{3-[(1R,2S,7R,8S)-3-(4-fluoro-benzyl)-6-hydroxy-4-oxo-3-aza-tricyclo[6.2.1.0^2,7]undec-5-en-5-yl]-1,1-dioxo-1,4-dihydro-1λ^6-benzo[1,2,4]thiadiazin-7-yl}-amide]	20 to 100
CC(C)CCN1C(=O)C(C2=NS(=O)(=O)c3cc(NS(=O)(=O)C4CC4)ccc3N2)=C(O)C2C1[C@@H]1CC[C@H]2C1 (stereo partly drawn) [Example 40, Cyclopropanesulfonic acid{3-(1R,2S,7R,8S)-[6-hydroxy-3-(3-methyl-butyl)-4-oxo-3-aza-tricyclo[6.2.1.0^2,7]undec-5-en-5-yl]-1,1-dioxo-1,4-dihydro-1λ^6-benzo[1,2,4]thiadiazin-7-yl}-amide]	20 to 100
O=C1C(C2=NS(=O)(=O)c3cc(NS(=O)(=O)c4ccccc4)ccc3N2)=C(O)[C@@H]2[C@H]3CC[C@H](C3)[C@@H]2N1Cc1ccc(F)cc1 [Example 41, N-{3-[(1R,2S,7R,8S)-3-(4-Fluoro-benzyl)-6-hydroxy-4-oxo-3-aza-tricyclo[6.2.1.0^2,7]undec-5-en-5-yl]-1,1-dioxo-1,4-dihydro-1λ^6-benzo[1,2,4]thiadiazin-7-yl}-benzenesulfonamide]	20 to 100
CS(=O)(=O)Nc1ccc2c(c1)S(=O)(=O)N=C(C1=C(O)C3C([C@@H]4CC[C@H]3C4)N(C3CCCC3)C1=O)N2 (stereo partly shown) [Example 44]	100 to 1000
CC(C)OC(=O)N(c1ccc2c(c1)S(=O)(=O)N=C(C1=C(O)C3C([C@@H]4CC[C@H]3C4)N(C3CCCC3)C1=O)N2)S(C)(=O)=O (stereo partly drawn) [Example 47, N-[3-(1R,2S,7R,8S)-(3-Cyclopentyl-6-hydroxy-4-oxo-3-aza-tricyclo[6.2.1.0^2,7]undec-5-en-5-yl)-1,1-dioxo-1,4-dihydro-1λ^6-benzo[1,2,4]thiadiazin-7-yl]-methanesulfonamide-N-isopropyl carbamate]	1000 to 100000
CC(C)CCN1C(=O)C(C2=NS(=O)(=O)c3cc(N4CCCC4)ccc3N2)=C(O)[C@@H]2[C@H]3CC[C@H](C3)[C@@H]21 [Example 53, (1R,2S,7R,8S)-5-(1,1-Dioxo-7-pyrrolidin-1-yl-1,4-dihydro-1λ^6-benzo[1,2,4]thiadiazin-3-yl)-6-hydroxy-3-(3-methyl-butyl)-3-aza-tricyclo[6.2.1.0^2,7]undec-5-en-4-one]	1000 to 100000
